In test [1] the target is JAK2 (Homo sapiens (Human), UniProt O60674). The test is described as follows: Biochemical JAK kinase assay (LanthaScreen), JAK2. Particulars: converted from pIC50 with Cheng-Prusoff equation. As for the experimental part:
(§1) Assay 1: Biochemical JAK Kinase Assays
(§2) A panel of four LanthaScreen JAK biochemical assays (JAK1, 2, 3 and Tyk2) were carried in a common kinase reaction buffer (50 mM HEPES, pH 7.5, 0.01% Brij-35, 10 mM MgCl2, and 1 mM EGTA). Recombinant GST-tagged JAK enzymes and a GFP-tagged STAT1 peptide substrate were obtained from Life Technologies.
(§3) Serially diluted compounds were pre-incubated with each of the four JAK enzymes and the substrate in white 384-well microplates (Corning) at ambient temperature for 1 h. ATP was subsequently added to initiate the kinase reactions in 10 μL total volume, with 1% DMSO. […] The plates were allowed to incubate at ambient temperature for 1 h before being read on the EnVision reader (Perkin Elmer).
(§4) For dose-response analysis, percent inhibition data were plotted vs. compound concentrations, and IC50 values were determined from a 4-parameter robust fit model with the Prism software (GraphPad Software). Results were expressed as pIC50 (negative logarithm of IC50) and subsequently converted to pKi (negative logarithm of dissociation constant, Ki) using the Cheng-Prusoff equation.
For orientation: In TR-FRET formats the signal depends on donor and acceptor labels being close together.

The test system of test [2] is IL-5 mediated eosinophil survival in human eosinophils. Put plainly: IL-5 mediated eosinophil survival assay. In kind it is cell-based. As to conditions: 72 h, read-out: pIC50, IL-5 mediated eosinophil survival (converted). As for the experimental part: Assay 6: IL-5 Mediated Eosinophil Survival Assay
The potency of the test compound for IL-5 mediated eosinophil survival was measured in human eosinophils isolated from human whole blood (AllCells). Because IL-5 signals through JAK, this assay provides a measure of JAK cellular potency.
Human eosinophils were isolated from fresh human whole blood (AllCells) of healthy donors. Blood was mixed with 4.5% Dextran (Sigma-Aldrich) in a 0.9% sodium chloride solution (Sigma-Aldrich). Red blood cells were left to sediment for 35 minutes. The leukocyte rich upper layer was removed and layered over Ficoll-Paque (GE Healthcare) and centrifuged at 600 g for 30 minutes. The plasma and mononuclear cell layers were removed before the granulocyte layer was lysed with water to remove any contaminating red blood cells. […] Purity was analyzed using a LSRII flow cytometer (BD Biosciences). […]
After cytokine stimulation, cells were centrifuged at 300 g for 5 min and washed twice with cold DPBS (Life Technologies). To access viability and apoptosis, cells were incubated with Propidium Iodide (Thermo Fisher Scientific) and APC Annexin V (BD Biosciences) and analyzed using a LSRII flow cytometer (BD Biosciences). IC50 values were determined from analysis of the viability curves of percent cell viability vs compound concentration. Data are expressed as pIC50 (negative decadic logarithm IC50) values.

Test [3] relates to IL-27 induced CXCL10 and CXCL9 secretion in EpiAirway tissue cultures. The test is described as follows: Inhibition of IL-27 induced chemokines CXCL9 and CXCL10 in human 3D airway cultures. In kind it is cell-based. As to conditions: 192 h, Day 8, ±STDV. As for the experimental part:
Assay 7: Inhibition of IFNγ and IL-27 Induced Chemokines CXCL9 and CXCL10 in Human 3D Airway Cultures
EpiAirway tissue cultures were obtained from Mattek (AIR-100). Cultures were derived from asthmatic donors. In a cell culture insert, human derived tracheal/bronchial epithelial cells were grown and differentiated on a porous membrane support, allowing an air-liquid interface with warmed culture medium below the cells and a gaseous test atmosphere above. Tissues were cultured in maintenance media (Mattek, AIR-100-MM) in a 37° C., 5% CO2 humidified incubator. Four donors were tested. On Day 0, tissue cultures were treated with test compounds at 10 μM, 1 μM and/or 0.1 μM. Compounds were diluted in dimethyl sulfoxide (DMSO, Sigma) to a final concentration of 0.1%. DMSO at 0.1% was used as a vehicle control. Test compounds were incubated with cultures for 1 hour at 37° C., 5% CO2, followed by the addition of pre-warmed media containing IFNγ (R&D Systems) or IL-27 (R&D Systems) at a final concentration at 100 ng/ml. Tissue cultures were maintained for 8 days. Media was replaced every 2 days with fresh media containing compounds and IFNγ or IL-27. On Day 8, tissue cultures and supernatants were collected for analysis. Supernatant samples were assayed for CXCL10 (IP-10) and CXCL9 (MIG) using luminex analysis (EMD Millipore). Data is expressed as % Inhibition +/−standard deviation (±STDV). Percent inhibition was determined by compound inhibitory potency against IFNγ or IL-27 induced CXCL10 or CXCL9 secretion compared to vehicle treated cells. Data is the average from 3 or 4 donors. […] The compound of example 2 was able to inhibit IFNγ induced CXCL9 secretion by 93%±13 (at 10 μM) and 24%±49 (at 1 μM) when compared to vehicle.

The subject of test [4] is IL-2/anti-CD3 stimulated IFNγ in human PBMCs. Put plainly: Cellular JAK potency assay: inhibition of IL-2/anti-CD3 stimulated IFNγ in human PBMCs. As to conditions: PBMC, 24 h stimulation, read-out: pIC50, inhibition of IL-2/anti-CD3 stimulated IFNγ (converted). The format is cell-based. The source says:
Data are expressed as pIC50 (negative decadic logarithm IC50) values.

Test [5] deals with Tyk2 (Homo sapiens (Human), UniProt P29597). The test is described as follows: Biochemical JAK kinase assay (LanthaScreen), Tyk2. As to conditions: converted from pIC50 with Cheng-Prusoff equation. On the procedure: as §1, §2, §3, §4
Sequence of Tyk2 (P29597 whole entry): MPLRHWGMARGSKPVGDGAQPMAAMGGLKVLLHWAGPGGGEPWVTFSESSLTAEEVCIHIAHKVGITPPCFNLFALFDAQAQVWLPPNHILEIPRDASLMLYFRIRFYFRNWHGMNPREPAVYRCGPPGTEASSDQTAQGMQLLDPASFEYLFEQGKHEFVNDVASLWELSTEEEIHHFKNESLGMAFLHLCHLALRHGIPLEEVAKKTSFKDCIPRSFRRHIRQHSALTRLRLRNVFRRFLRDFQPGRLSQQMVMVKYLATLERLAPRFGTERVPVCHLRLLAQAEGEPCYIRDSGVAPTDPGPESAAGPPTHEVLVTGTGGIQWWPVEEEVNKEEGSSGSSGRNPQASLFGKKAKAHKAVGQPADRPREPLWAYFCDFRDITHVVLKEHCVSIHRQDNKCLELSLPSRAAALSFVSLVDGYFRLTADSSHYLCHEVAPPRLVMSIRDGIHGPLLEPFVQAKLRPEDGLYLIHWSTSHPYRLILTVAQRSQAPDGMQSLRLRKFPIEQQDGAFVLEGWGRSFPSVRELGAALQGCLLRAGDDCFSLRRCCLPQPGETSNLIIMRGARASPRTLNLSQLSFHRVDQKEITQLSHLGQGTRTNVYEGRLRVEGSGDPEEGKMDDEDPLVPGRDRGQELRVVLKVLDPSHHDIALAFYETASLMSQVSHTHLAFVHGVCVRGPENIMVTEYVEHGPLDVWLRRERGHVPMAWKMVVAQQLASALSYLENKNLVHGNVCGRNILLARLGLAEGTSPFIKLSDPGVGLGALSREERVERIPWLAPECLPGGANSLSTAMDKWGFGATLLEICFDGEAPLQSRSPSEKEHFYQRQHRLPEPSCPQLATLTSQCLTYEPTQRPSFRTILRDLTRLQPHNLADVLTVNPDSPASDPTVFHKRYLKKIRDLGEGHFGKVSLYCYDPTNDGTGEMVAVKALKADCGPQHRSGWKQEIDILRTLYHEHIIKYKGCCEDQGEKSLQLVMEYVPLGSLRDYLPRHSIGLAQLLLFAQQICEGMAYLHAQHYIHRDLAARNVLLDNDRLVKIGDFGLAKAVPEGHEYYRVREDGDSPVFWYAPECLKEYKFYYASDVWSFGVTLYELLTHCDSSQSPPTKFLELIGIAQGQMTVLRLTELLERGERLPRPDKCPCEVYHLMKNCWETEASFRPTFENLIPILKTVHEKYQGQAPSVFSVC
Where [6] appears, read: read-out: % inhibition of IL-27 induced CXCL9 secretion.
Setting [7] is: read-out: % inhibition of IL-27 induced CXCL10 secretion.

Where two headings read alike, the source gives them in different places.

Sequence of JAK2 (O60674 whole entry): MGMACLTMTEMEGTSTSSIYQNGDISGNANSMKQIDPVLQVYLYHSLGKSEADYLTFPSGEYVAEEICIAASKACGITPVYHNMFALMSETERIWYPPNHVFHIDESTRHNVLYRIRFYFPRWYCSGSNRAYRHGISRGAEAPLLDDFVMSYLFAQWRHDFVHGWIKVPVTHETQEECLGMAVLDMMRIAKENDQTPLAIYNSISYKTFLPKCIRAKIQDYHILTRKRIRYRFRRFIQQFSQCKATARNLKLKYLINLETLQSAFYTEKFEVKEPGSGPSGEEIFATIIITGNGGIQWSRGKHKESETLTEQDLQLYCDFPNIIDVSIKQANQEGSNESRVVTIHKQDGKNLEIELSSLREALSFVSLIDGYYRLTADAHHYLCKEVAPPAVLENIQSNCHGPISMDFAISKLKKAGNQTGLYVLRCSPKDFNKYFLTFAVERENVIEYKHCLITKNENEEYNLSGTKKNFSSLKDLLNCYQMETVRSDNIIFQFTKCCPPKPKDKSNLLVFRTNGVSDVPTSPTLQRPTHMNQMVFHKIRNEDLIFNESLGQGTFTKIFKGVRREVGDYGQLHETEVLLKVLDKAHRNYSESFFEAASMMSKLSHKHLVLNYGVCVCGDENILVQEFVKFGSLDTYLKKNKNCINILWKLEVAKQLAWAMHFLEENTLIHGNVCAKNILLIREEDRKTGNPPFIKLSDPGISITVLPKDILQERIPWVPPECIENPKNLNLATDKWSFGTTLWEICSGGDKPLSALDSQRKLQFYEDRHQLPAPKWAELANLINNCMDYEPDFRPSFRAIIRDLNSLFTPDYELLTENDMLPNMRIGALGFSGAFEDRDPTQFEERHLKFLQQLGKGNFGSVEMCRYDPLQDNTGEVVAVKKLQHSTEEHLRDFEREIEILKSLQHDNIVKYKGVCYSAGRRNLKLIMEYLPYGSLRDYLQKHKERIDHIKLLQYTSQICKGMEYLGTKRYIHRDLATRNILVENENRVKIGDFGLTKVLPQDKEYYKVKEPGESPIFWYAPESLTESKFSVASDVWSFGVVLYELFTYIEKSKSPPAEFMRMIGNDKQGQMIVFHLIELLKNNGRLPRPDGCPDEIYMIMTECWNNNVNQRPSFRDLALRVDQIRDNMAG

For `CCc1cc(O)c(F)cc1-c1ccc2c(-c3nc4c([nH]3)CN(C(C)C)[C@H](C(=O)N3CC(N(C)C)C3)C4)n[nH]c2c1` [Example 2, (S)-(3-(dimethylamino)azetidin-1-yl)(2-(6-(2-ethyl-5-fluoro-4-hydroxyphenyl)-1H-indazol-3-yl)-5-isopropyl-4,5,6,7-tetrahydro-3H-imidazo[4,5-c]pyridin-6-yl)methanone], the Ki was found to be 0.02 nM in test [1] and 0.32 nM in test [5]. Further, the IC50 in test [2] (in the presence of 10 pg/ml IL-5, 72 hours) was 25.1 nM; in test [2] (in the presence of 1 ng/ml IL-5, 72 hours), 631 nM; in test [4] it was roughly 79.4 nM. The inhibition at 0.1 µM turned out to be 57% in test [3] (setting [6]) and 69% in test [3] (setting [7]). Further, the inhibition at 1 µM in test [3] (setting [6]) was determined as 97%; in test [3] (setting [7]) it was 101%. The inhibition at 10 µM in test [3] (setting [6]) came out at 100%; in test [3] (setting [7]), 108%.

The term Ki denotes the dissociation constant of the complex between target and ligand, obtained from inhibition or displacement. Read a high Ki as a looser hold on the target. A word on the inhibition: it is the change of the read-out against control, counted positive when it falls.

(Values after patent US10196393B2, “JAK inhibitors containing a 4-membered heterocyclic amide” (THERAVANCE BIOPHARMA R&D IP, LLC, priority 2017, dated 2019).)
